Source: patent publication US20240400572A1, “COMPOUNDS AND METHODS FOR TREATING CANCERS THAT ARE MGMT DEFICIENT REGARDLESS OF MMR STATUS” (Yale University, priority 2021, published 2024)

Tested on: FANCD2 ubiquitination in LN229 MGMT+/−, MMR+/− cells
Test: Western blot analysis of FANCD2 ubiquitination
Format: cell-based, human
Experimental: FIGS. ZS9A-ZS9G. […] (FIG. ZS9A) Representative images of micronuclei identification. (FIG. ZS9B) Validation of micronuclei identification using olaparib as positive control. Change in percent cells with 1 micronuclei from baseline (DMSO control) after treatment with olaparib ([…]) for 48 h in LN229 MGMT+/−, MMR+/− cells. Columns, mean; error bars, SD; […] technical replicates; **** p<0.0001. […] (FIG. ZS9G) Western blot analysis of FANCD2 ubiquitination in LN229 MGMT+/−, MMR+/− cells and PD20 FANCD2-deficient cells, complemented with empty vector (FANCD2+EV), wildtype FANCD2 (PD20+FD2) or ubiquitination-mutant FANCD2 (PD20+KR). The % FANCD2 ubiquitination (% FANCD2 Ub.) is quantified as the background-corrected integrated band intensity of the upper band divided by the sum of the background-corrected integrated band intensities of the upper and lower bands. The fold change in % FANCD2 ubiquitination is presented for each cell line relative to DMSO-treated cells. Vinculin serves as loading control. For (FIG. ZS9D), (FIG. ZS9E), and (FIG. ZS9F), points, mean; error bars, SD; n=3 technical replicates.
Western Blotting. […] Where shown, bands were quantified using ImageJ software.

SMILES | FANCD2 ubiquitination (in words)
NC(=O)c1ncn2c(=O)n(CCF)nnc12 [KL-50, 3-(2-fluoroethyl)-4-oxo-3H,4H-imidazo[4,3-d][1,2,3,5]tetrazine-8-carboxamide] | specifically in MGMT− cells
Cn1nnc2c(C(N)=O)ncn2c1=O [TMZ, temozolomide, reference compound] | induced FANCD2 ubiquitination but only in MGMT−/MMR+ cells
